Source: patent US20260193254A1, “2-OXOQUINAZOLINE CRYSTALLINE FORMS” (IDEAYA Biosciences, Inc., priority 2022, published 2026)

Assay: Vapor diffusion experiments
Assay type: physicochemical
Settings: VD6 Ethanol (8), anti-solvent t-Butyl methyl ether, 1:4, room temperature
Experimental: After sonication for about 30 seconds, obtained solution or suspension is filtered by a 0.45 μm syringe membrane filter. A clear solution is obtained. A suitable volume of the clear solution is transferred into a small glass vial (8 mL) without a lid and the lidless small vial was placed into a large glass vial (40 mL) containing anti-solvents in the bottom (solvent: anti-solvent=1:4, v/v). The large vials are tightly capped and placed at room temperature. Precipitates were collected by filtration. Solid part (wet cake) was investigated by XRPD.

Nc1nc(=O)n(-c2ccccc2Cl)c2nc(C(F)(F)F)ccc12 [solid state Form V, 4-Amino-1-(2-chlorophenyl)-7-(trifluoromethyl)pyrido[2,3-d]pyrimidin-2(1H)-one]
Crystalline Form formed by vapor diffusion: Form H
